In US4431640A, “Process for inducing anabolic and androgenic activity in animals” (Roussel Uclaf, priority 1980, dated 1984):

Assays:
androgen receptor = molecular target: T1, androgen receptor (Rattus norvegicus, UniProt P15207); assay: androgenic activity by hormonal receptor method (displacement of tritied R from prostate cytosol); type: binding, rats; details: castrated male rat prostate cytosol, incubated at 0° C. for 2 hours, testosterone = 100
T1 construct: The prostate was removed from male rats castrated 24 hours earlier and it was homogenized; from tissue; host or cells: prostate cytosol (105,000 g supernatant) of male rats castrated 24 hours earlier
T1 sequence (P15207 1-902): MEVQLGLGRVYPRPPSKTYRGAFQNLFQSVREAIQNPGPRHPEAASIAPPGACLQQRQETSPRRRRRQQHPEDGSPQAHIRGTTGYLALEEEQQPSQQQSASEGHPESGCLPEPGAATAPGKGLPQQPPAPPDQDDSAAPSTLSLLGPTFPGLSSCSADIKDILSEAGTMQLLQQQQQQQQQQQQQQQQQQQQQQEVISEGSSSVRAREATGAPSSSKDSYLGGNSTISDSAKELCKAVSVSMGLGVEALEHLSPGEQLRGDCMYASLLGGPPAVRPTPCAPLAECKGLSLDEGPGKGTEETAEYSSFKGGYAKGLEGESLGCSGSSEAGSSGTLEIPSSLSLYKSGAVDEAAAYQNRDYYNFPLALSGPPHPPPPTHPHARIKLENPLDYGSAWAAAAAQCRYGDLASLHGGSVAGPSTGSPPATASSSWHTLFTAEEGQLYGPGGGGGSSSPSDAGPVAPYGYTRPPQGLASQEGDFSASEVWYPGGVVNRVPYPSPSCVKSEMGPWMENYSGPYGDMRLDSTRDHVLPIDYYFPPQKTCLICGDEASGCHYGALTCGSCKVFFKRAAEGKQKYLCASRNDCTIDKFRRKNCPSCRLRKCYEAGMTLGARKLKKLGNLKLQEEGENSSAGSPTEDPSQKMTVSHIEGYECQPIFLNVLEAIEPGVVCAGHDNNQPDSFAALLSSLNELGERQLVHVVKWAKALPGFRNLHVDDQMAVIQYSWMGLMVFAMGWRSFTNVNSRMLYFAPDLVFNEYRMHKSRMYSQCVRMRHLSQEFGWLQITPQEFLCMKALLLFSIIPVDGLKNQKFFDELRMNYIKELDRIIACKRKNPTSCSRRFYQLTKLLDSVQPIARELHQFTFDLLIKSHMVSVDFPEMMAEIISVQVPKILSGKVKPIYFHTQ
Experimental: The androgenic activity of the compound of Example 1 and 11β-propyl-17α-methyl-Δ^4,9 -estradiene-17β-ol-3-one (compound A) were compared by the hormonal receptor method of Raynaud et al [J. Ster. Biochem., Vol. 6 (1975), p. 615-622]. The prostate was removed from male rats castrated 24 hours earlier and it was homogenized in a buffered 10 mmole tromethamine solution containing 0.25 M of saccharose and a pH of 7.4 with hydrochloric acid. The homogenate was centrifuged at 105,000 g for one hour and the liquid surnageant or "cytosol" was adjusted to obtain a 1/5 (weight/volume) dilution.
The radioactivity of tritied product was determined after about 2 hours in the receptor by the technique of carbon-dextran (1.25%-0.625%) absorption. […] B/T max. is the percentage of tied tritied R product when the compound is not added. B/T min. is the percentage of tied tritied product R when the maximum amount of cold product R is added. […] The relative affinity of the test product or ARL was determined using the formula [formula]

calves of the FFPN race = assay: weight gain test in calves after percutaneous treatment; type: in vivo
Experimental: This test was effected with groups of calves of the FFPN race and all groups received the same amount of feed. The control group were untreated and the other group received percutaneously on day J and J+7 200 mg of the compound of Example 1. The weights of the animals were determined 7 days before the treatment (J-7), on the day of treatment (J), on the day of the second treatment (J+7) and one week after the second treatment (J+14) and the results are reported in the following Table.

Compound	relative affinity (ARL) (androgen receptor)	average weight gain (calves of the FFPN race; 7 days after the test, J 14 to J 21, 200 mg percutaneously on J and J+7)	Average weight of calves (calves of the FFPN race; day J + 7, day of second treatment, 200 mg percutaneously on J and J+7)	Average weight of calves (calves of the FFPN race; day J + 14, one week after second treatment, 200 mg percutaneously on J and J+7)	Average weight of calves (calves of the FFPN race; day J - 7, 7 days before the treatment (baseline))	Average weight of calves (calves of the FFPN race; day J, day of first treatment (200 mg percutaneously))	average weight gain (calves of the FFPN race; table total (J to J + 14), 200 mg percutaneously on J and J+7)
C[C@H]1C[C@@]2(C)[C@@H](CC[C@]2(C)O)[C@@H]2CCC3=CC(=O)CCC3=C21 [Example 1, 11β,17α-dimethyl-Δ^4,9-estradiene-17β-ol-3-one]	90	8.63 kg	60.47 kg	70.67 kg	45.50 kg	52.30 kg	18.37 kg
CCC[C@H]1C[C@@]2(C)[C@@H](CC[C@]2(C)O)[C@@H]2CCC3=CC(=O)CCC3=C12 [product A, 11β-propyl-17α-methyl-Δ^4,9-estradiene-17β-ol-3-one, reference compound]	22	–	–	–	–	–	–
